Values after ≈ are worked out from the molar mass of the structure shown. “Also recorded” adds a separate entry of the source.
Tests used:
[1] = system: Staphylococcus aureus (S. aureus), Strain #6538; experiment: Primary stage MIC measurement of antibiotic alone (2-fold dilutions, OD 600 nm growth curves); assay type: cell-based; details: for MIC: Staphylococcus aureus, read-out: MIC values for S. aureus found in the present study (in-house primary MIC)
Procedure: An isolated colony of S. aureus bacteria was picked from afresh streak plate (no more than 1 week old). The colony was transferred into 3-4 ml of TSB and incubated overnight in an orbital shaker at 35° C.-37° C.
The following day, the turbidity of the actively-growing broth culture was adjusted with Calcium-adjusted Mueller Hinton broth II (MHBII) to be equivalent to that of a 0.5 McFarland standard (1×10^8 CFU/ml). The broth culture was maintained under ambient conditions prior to use.
No more than 15 minutes prior to use, the culture was further diluted 20 fold in MHBII to obtain a final 5×10^6 CFU/ml stock suspension.
The method used in this stage was based on the classic Minimum Inhibitory Concentration (MIC) measurements, as described by the Clinical and Laboratory Standards Institute (CLSI) document M07-A9: “Method for Dilution Antimicrobial Susceptibility Test for Bacteria that Grow Aerobically”. While classic MIC measurements require visual inspection of plates for bacterial growth after 18 hours, growth was monitored in the present study according to optical density (OD) at 600 nm, using an ELISA reader (MultiSkan™ FC ELISA reader, Thermo Fisher Scientific, Massachusetts, USA), thereby obtaining bacterial growth curves for tested antibiotic solutions.
A 96-well assay plate layout (Corning Cat #3596) was prepared as follows:
Columns 1 and 3-12: 100 μl of MHBII alone was added to each well.
[…]: 200 μl of a solution of antibiotic in MHBII at the highest concentration to be tested was added to each well.
A series of 2-fold dilutions was performed, wherein 100 μl of solution of antibiotic was withdrawn from each well of column 2, transferred to the corresponding well of column 3, and mixed.
The dilution was then repeated by transfer from column 3 to column 4, and so on, until column 11, when the 100 μl of solution of antibiotic withdrawn from each well of column 11 was discarded.
The plate was then incubated at 37° C. with shaking in the ELISA reader and the optical density at 600 nm was read every 20 minutes for a total of 18 hours.
The average OD reading obtained for each antibiotic concentration was calculated and plotted against time to obtain a growth curve.
The MIC was determined as the first antibiotic concentration at which […] by the end of the 18-hour period.

S. aureus [2] = experiment: Tertiary stage: antimicrobial activity of antibiotic-impregnated ORC extracts (ET50, MIC); assay type: cell-based, Staphylococcus aureus; details: for Antibiotic-impregnated ORC (tertiary) MIC: single antibiotic impregnated onto ORC pad; for Result (ET50): ORC pad
Procedure: The maximum OD is determined by bacterial growth in MHBII without the chemical.
Solutions comprising different concentrations of antibiotics to be tested were prepared in methanol.
Blank ORC pads of dimensions 1×1.5 inch, weighing between 65-75 mg (70 mg on average), in duplicate, were immersed in the antibiotic solutions and then dried using a rotary evaporator to provide “antibiotic-impregnated ORC pads”.
15 ml test tubes containing 3 ml of sterile PBS were prepared, and the antibiotic-impregnated ORC pads were immersed in the tubes and incubated for 3-5 hours at ambient temperature on a roller mixer (Stuart, Cat #SRT9D).
Each of the above extracts was filtered out using a sterile 0.8/0.2 μm syringe filter into a clean 15 ml tube. These extraction fluids are referred to herein as “antibiotic-impregnated ORC extracts”.
Briefly, ORC patches weighing on average 70 mg each were impregnated with the selected antibiotic. Antibiotic-impregnated ORC extracts were prepared by immersion and incubation in 3 ml of sterile PBS for 3 hours at ambient temperature. The ORC was then removed and any remaining ORC particles were filtered out using a […] syringe filter. This extraction fluid was then diluted 10-fold into Muller Hinton growth medium containing bacteria. Bacterial growth was monitored every 20 min for a total of 18 hours according to optical density (OD) at 600 nm, using an ELISA reader.
Since the study included many possible combinations of two antibiotics, each with their own different concentration range, a matrix of possible antibiotic concentrations was designed, and ORC pads prepared accordingly (see Table 10). Since all the possible combinations could not be fitted into one 96 well plate, a series of MIC experiments were carried out.

[3] = system: Staphylococcus aureus (S. aureus), Strain #6538; experiment: Secondary stage: antibiotic alone or blank ORC extracted in antibiotic, bacterial growth curves (ET50); assay type: cell-based; details: presence of ORC pads (not impregnated), read-out: MIC upon addition of a small amount of ORC to the growth medium
[4] = system: Staphylococcus aureus (S. aureus), Strain #6538; experiment: as above; assay type: cell-based; details: antibiotic solution with versus without ORC
Procedure: Blank ORC pads i.e. ORC pads which had not been impregnated with antibiotic (referred to herein as “blank ORC pads”), were subjected to extraction in a solution of antibiotic in PBS for three hours at ambient temperature.
Due to the acidity of ORC, which provides some antibiotic effect, the size of the pad used was small i.e. approximately 1×1.5 inch, weighing between 65-75 mg (70 mg on average) in order to prevent the ORC from affecting the final pH of the assay and therefore the growth of the bacteria.
15 ml tubes, each containing 3 ml of an antibiotic solution at a known concentration in sterile PBS, were prepared in duplicate. […]
The plate was incubated at 37° C. with shaking in the ELISA reader and the optical density at 600 nm was read every 20 minutes for a total of 18 hours.
The average and standard deviation for OD readings was calculated for each time point of the wells using Excel. […]
The average values were also entered into the GraphPad Prism program (GraphPad Software Inc., CA, USA) in order to calculate the Effective Time 50 (ET50) i.e. the time, in minutes, required for the antibiotic to induce a response halfway between the baseline and maximum, where the maximum is the bacterial growth in MHBII with PBS. This provides a quantifiable measure of the efficacy of the antibiotics tested and enables comparison of the various samples tested. […]

S. aureus [5] = details: published values; cited from earlier work

CCC[C@@H]1C[C@@H](C(=O)N[C@@H]([C@H]2O[C@H](SC)[C@H](O)[C@@H](O)[C@H]2O)[C@H](C)Cl)N(C)C1 [Clindamycin, clindamycin]
MIC as single antibiotic in the absence of ORC (first stage MIC results) [1]: 62 ng/mL | MIC ([1]; absence of ORC): 0.062 µg/mL (≈ 0.146 µM) | Antibiotic-impregnated ORC (tertiary) MIC (S. aureus [2]): 0.015 µg/mL

CN(C)c1ccc(O)c2c1C[C@H]1C[C@H]3[C@H](N(C)C)C(O)=C(C(N)=O)C(=O)[C@@]3(O)C(O)=C1C2=O [Minocycline, minocycline]
MIC as single antibiotic in the absence of ORC (first stage MIC results) [1]: 250 ng/mL | MIC ([1]; absence of ORC): 0.25 µg/mL (≈ 0.546 µM) | Result (ET50) (S. aureus [2]; 0.54 μg Minocycline + 0.00 μg Clindamycin per gr ORC): 637.6 min | Result (ET50) (S. aureus [2]; 0.54 μg Minocycline + 0.00 μg Rifampin per gr ORC): 585.4 min | Result (ET50) (S. aureus [2]; 1.08 μg Minocycline + 0.00 μg Clindamycin per gr ORC): 1072 min | Result (ET50) (S. aureus [2]; 1.08 μg Minocycline + 0.00 μg Rifampin per gr ORC): 799.9 min | Result (ET50) (S. aureus [2]; 2.16 μg Minocycline + 0.00 μg Clindamycin per gr ORC): >2000 min | Result (ET50) (S. aureus [2]; 2.16 μg Minocycline + 0.00 μg Rifampin per gr ORC): >2000 min | Result (ET50) (S. aureus [2]; 2.70 μg Minocycline + 0.00 μg Clindamycin per gr ORC): >2000 min | Result (ET50) (S. aureus [2]; 2.70 μg Minocycline + 0.00 μg Rifampin per gr ORC): >2000 min | MIC (S. aureus [2]; Staphylococcus aureus, single antibiotic impregnated onto ORC, read-out: MIC of minocycline together with ORC, ORC impregnated with minocycline): 0.0126 µg/mL | Minocycline concentration sufficient for growth inhibition of S. aureus in combination (S. aureus [2]; impregnated onto ORC together with rifampin or clindamycin): 1.26 ng/mL | Antibiotic-impregnated ORC (tertiary) MIC (S. aureus [2]): 0.0126 µg/mL | Fold reduction of the MIC when impregnated onto ORC in combination with an additional antibiotic (S. aureus [2]; versus single antibiotic in the absence of ORC (first stage MIC)): 200 | MIC [3]: 0.05 µg/mL

CO[C@H]1/C=C/O[C@@]2(C)Oc3c(C)c(O)c4c(O)c(c(/C=N/N5CCN(C)CC5)c(O)c4c3C2=O)NC(=O)/C(C)=C\C=C\[C@H](C)[C@H](O)[C@@H](C)[C@@H](O)[C@@H](C)[C@H](OC(C)=O)[C@@H]1C [Rifampin, rifampin]
MIC as single antibiotic in the absence of ORC (first stage MIC results) [1]: 15 ng/mL | MIC ([1]; absence of ORC): 0.015 µg/mL (≈ 0.0182 µM) | Effect of addition of ORC on the antibiotic activity [4]: ORC interferes with the antibiotic activity of rifampin; also recorded: impaired by ORC and MIC was increased | Result (ET50) (S. aureus [2]; 0.00 μg Minocycline + 31.41 μg Rifampin per gr ORC): 406.8 min | Result (ET50) (S. aureus [2]; 0.00 μg Minocycline + 62.82 μg Rifampin per gr ORC): 442.3 min | Result (ET50) (S. aureus [2]; 0.00 μg Minocycline + 125.64 μg Rifampin per gr ORC): 450.4 min | Result (ET50) (S. aureus [2]; 0.00 μg Minocycline + 157.05 μg Rifampin per gr ORC): 418.1 min | Rifampin concentration sufficient for growth inhibition of S. aureus in combination (S. aureus [2]; impregnated onto ORC together with 1.26 ng/ml minocycline): 366.5 ng/mL | Antibiotic-impregnated ORC (tertiary) MIC (S. aureus [2]): 0.733 µg/mL | Change of antimicrobial activity when impregnated onto the ORC pad (S. aureus [2]; versus first stage MIC): activity was impaired | MIC values for S. aureus according to CLSI (S. aureus [5]): 0.004 to 0.015 µg/mL

Gentamycin [Gentamicin]
MIC values for S. aureus found in the present study (in-house primary MIC) ([1]; absence of ORC): 0.25 µg/mL | Effect of addition of ORC on the antibiotic activity [4]: decreased antibiotic activity; also recorded: impaired by ORC and MIC was increased | MIC values for S. aureus according to CLSI (S. aureus [5]): 0.12 to 1 µg/mL

Reference: patent publication US11000635B2, “Antimicrobial compositions comprising minocycline and oxidized cellulose” (priority 2017, dated 2021)
